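Step 1: Grow cells in 96-well plates. Step 2: Expose to compound for 48 hours at 5 concentrations. Step 3: Interpolate endpoints linearly; if unreached, use highest concentration. Abbreviation: GI50, concentration required for 50% inhibition of growth.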 Activity calls are given as the source filed them. Rule as the data show it: active = GI50 up to about 1.1 µM and inactive = higher.
Legend:
Experiment in all cases: growth of human tumour cells (NCI), 48 h
PC-3 = system: PC-3
OVCAR-8 = system: OVCAR-8
UACC-257 = system: UACC-257
UACC-62 = system: UACC-62
NCI-H460 = system: NCI-H460
SF-539 = system: SF-539
LOX IMVI = system: LOX IMVI
K562 = system: K562
A549 = system: A549
NCI-H23 = system: NCI-H23
U-251 = system: U-251
KM12 = system: KM12
COLO 205 = system: COLO 205
M14 = system: M14
786-0 = system: 786-0
EKVX = system: EKVX
HOP-92 = system: HOP-92
DU-145 = system: DU-145
SK-MEL-5 = system: SK-MEL-5

Structure (SMILES)	GI50 (PC-3)	GI50 (OVCAR-8)	GI50 (UACC-257)	GI50 (UACC-62)	GI50 (NCI-H460)	GI50 (SF-539)	GI50 (LOX IMVI)	GI50 (K562)	GI50 (A549)	GI50 (NCI-H23)	GI50 (U-251)	GI50 (KM12)	GI50 (COLO 205)	GI50 (M14)	GI50 (786-0)	GI50 (EKVX)	GI50 (HOP-92)	GI50 (DU-145)	GI50 (SK-MEL-5)
CC(=O)ON(C(C)=O)c1ccc(-c2nc3ccccc3s2)cc1C	30.5 µM (inactive)	52.1 µM (inactive)	50 µM (inactive)	44.3 µM (inactive)	21.3 µM (inactive)	41 µM (inactive)	37.4 µM (inactive)	45.2 µM (inactive)	28.7 µM (inactive)	52.7 µM (inactive)	10.4 µM (inactive)	47.4 µM (inactive)	20.5 µM (inactive)	59 µM (inactive)	60 µM (inactive)	2.77 µM (inactive)	43.6 µM (inactive)	37.7 µM (inactive)	21.5 µM (inactive)
CC(C)(C)C(=O)C(C#N)C(=O)C(C)(C)C	> 100 µM (inactive)	> 100 µM (inactive)	> 100 µM (inactive)		> 100 µM (inactive)	> 100 µM (inactive)	> 100 µM (inactive)	> 100 µM (inactive)	> 100 µM (inactive)	> 100 µM (inactive)	> 100 µM (inactive)	> 100 µM (inactive)	> 100 µM (inactive)	> 100 µM (inactive)	> 100 µM (inactive)	> 100 µM (inactive)	> 100 µM (inactive)	> 100 µM (inactive)	> 100 µM (inactive)
CCOC(=O)C1CCC(=O)N1C(=O)c1ccccc1 (configuration not stated)	> 100 µM (inactive)	> 100 µM (inactive)	> 100 µM (inactive)	7.83 µM (inactive)	> 100 µM (inactive)	> 100 µM (inactive)	92.3 µM (inactive)	> 100 µM (inactive)	> 100 µM (inactive)	> 100 µM (inactive)	> 100 µM (inactive)	> 100 µM (inactive)		> 100 µM (inactive)	> 100 µM (inactive)	> 100 µM (inactive)	> 100 µM (inactive)	> 100 µM (inactive)	> 100 µM (inactive)
COc1ccccc1CC(=O)C(O)(C(F)(F)F)C(F)(F)F	> 100 µM (inactive)	> 100 µM (inactive)	> 100 µM (inactive)	> 100 µM (inactive)	> 100 µM (inactive)	> 100 µM (inactive)	> 100 µM (inactive)	> 100 µM (inactive)	> 100 µM (inactive)	> 100 µM (inactive)	> 100 µM (inactive)	> 100 µM (inactive)	> 100 µM (inactive)	> 100 µM (inactive)	> 100 µM (inactive)	> 100 µM (inactive)	> 100 µM (inactive)	> 100 µM (inactive)	> 100 µM (inactive)
O=C1CCC2(c3ccccc3)Nc3ccncc3N12 (configuration not stated)	> 10 µM (inactive)	> 10 µM (inactive)	> 10 µM (inactive)	> 10 µM (inactive)	> 10 µM (inactive)	> 10 µM (inactive)	> 10 µM (inactive)	> 10 µM (inactive)	> 10 µM (inactive)	> 10 µM (inactive)	> 10 µM (inactive)	> 10 µM (inactive)		> 10 µM (inactive)	> 10 µM (inactive)	> 10 µM (inactive)	> 10 µM (inactive)	> 10 µM (inactive)	
CC[C@@H]1CC[C@@H]2[C@H](CC[C@]3(C)[C@@H](O)CC[C@@H]23)[C@H]1C(=O)O	> 100 µM (inactive)	> 100 µM (inactive)	> 100 µM (inactive)	> 100 µM (inactive)	> 100 µM (inactive)	> 100 µM (inactive)	> 100 µM (inactive)	> 100 µM (inactive)	> 100 µM (inactive)	> 100 µM (inactive)	> 100 µM (inactive)	> 100 µM (inactive)	> 100 µM (inactive)	> 100 µM (inactive)	> 100 µM (inactive)	> 100 µM (inactive)	> 100 µM (inactive)	> 100 µM (inactive)	> 100 µM (inactive)
CN1C(NCCO)=NS(=O)(=O)c2ccccc21	> 100 µM (inactive)	> 100 µM (inactive)	> 100 µM (inactive)	> 100 µM (inactive)	> 100 µM (inactive)	> 100 µM (inactive)	> 100 µM (inactive)	> 100 µM (inactive)	> 100 µM (inactive)	> 100 µM (inactive)	> 100 µM (inactive)	> 100 µM (inactive)	> 100 µM (inactive)	> 100 µM (inactive)	> 100 µM (inactive)	> 100 µM (inactive)	> 100 µM (inactive)	> 100 µM (inactive)	> 100 µM (inactive)
Cc1noc(C)c1/N=N/c1ccc2nonc2c1N	> 100 µM (inactive)	> 100 µM (inactive)	> 100 µM (inactive)	> 100 µM (inactive)	> 100 µM (inactive)	23.4 µM (inactive)	> 100 µM (inactive)	> 10 µM (inactive)	> 100 µM (inactive)	46.5 µM (inactive)		> 100 µM (inactive)	> 100 µM (inactive)	> 100 µM (inactive)	42.4 µM (inactive)	2.66 µM (inactive)	87.7 µM (inactive)	> 100 µM (inactive)	> 100 µM (inactive)
COc1ccc(NC(=S)N/N=C(\C)c2nc3cccnc3[nH]2)cc1	4.48 µM (inactive)	3.19 µM (inactive)	3.52 µM (inactive)	3.93 µM (inactive)	2.94 µM (inactive)	2.9 µM (inactive)	3.18 µM (inactive)	3.58 µM (inactive)	5.53 µM (inactive)	10 µM (inactive)	3.87 µM (inactive)	5.47 µM (inactive)	4.52 µM (inactive)		4.99 µM (inactive)	2.32 µM (inactive)	4.4 µM (inactive)	6.17 µM (inactive)	4.33 µM (inactive)
CCCCCCCCCCCCCCCC(=O)ON1C(=S)NC(C)(c2ccccc2)C1=S (configuration not stated)	62.2 µM (inactive)	> 100 µM (inactive)	> 100 µM (inactive)	> 100 µM (inactive)	> 100 µM (inactive)	> 100 µM (inactive)	45.2 µM (inactive)	38.2 µM (inactive)	> 100 µM (inactive)	> 100 µM (inactive)		> 100 µM (inactive)	> 100 µM (inactive)	30.3 µM (inactive)	60 µM (inactive)	> 100 µM (inactive)	> 100 µM (inactive)	> 100 µM (inactive)	> 100 µM (inactive)
Cc1ccc2c(c1)C(=O)C1(Cc3ccccc3C1=O)C2 (configuration not stated)	> 100 µM (inactive)	> 100 µM (inactive)	> 100 µM (inactive)	28.9 µM (inactive)	> 100 µM (inactive)	> 100 µM (inactive)	> 100 µM (inactive)	> 100 µM (inactive)	> 100 µM (inactive)	> 100 µM (inactive)	> 100 µM (inactive)	> 100 µM (inactive)	> 100 µM (inactive)	> 100 µM (inactive)	> 100 µM (inactive)	> 100 µM (inactive)	30.1 µM (inactive)	> 100 µM (inactive)	> 100 µM (inactive)
Cc1nc(-n2[nH]c(C)c(CCO)c2=O)[nH]c(=O)c1CCO	> 100 µM (inactive)	> 100 µM (inactive)	> 100 µM (inactive)	> 100 µM (inactive)	> 100 µM (inactive)	> 100 µM (inactive)	> 100 µM (inactive)	> 100 µM (inactive)	> 100 µM (inactive)	> 100 µM (inactive)	> 100 µM (inactive)	> 100 µM (inactive)	> 100 µM (inactive)	> 100 µM (inactive)	> 100 µM (inactive)	> 100 µM (inactive)	> 100 µM (inactive)	> 100 µM (inactive)	> 100 µM (inactive)
Clc1nc(-c2ccccc2)nc(Cl)c1Cl	11.8 µM (inactive)	14.6 µM (inactive)	14.6 µM (inactive)	13.7 µM (inactive)	18.7 µM (inactive)	18.4 µM (inactive)	2.26 µM (inactive)	3.76 µM (inactive)	15.4 µM (inactive)	14.7 µM (inactive)	8.28 µM (inactive)	11.6 µM (inactive)	10.3 µM (inactive)	7.14 µM (inactive)	8.05 µM (inactive)	16.2 µM (inactive)	13.9 µM (inactive)	15.8 µM (inactive)	13.4 µM (inactive)
COc1ccc(NC(=O)C2=C(SC)C(C#N)C(=O)N=C2N)cc1 (configuration not stated)	> 100 µM (inactive)		> 100 µM (inactive)	> 100 µM (inactive)	> 100 µM (inactive)	> 100 µM (inactive)	> 100 µM (inactive)	54.3 µM (inactive)	> 100 µM (inactive)	> 100 µM (inactive)	> 100 µM (inactive)	0.369 µM (active)	55.7 µM (inactive)	> 100 µM (inactive)	65.8 µM (inactive)	> 100 µM (inactive)	14 µM (inactive)	> 100 µM (inactive)	> 100 µM (inactive)
CC(C)(C)c1ccc(-c2nc3ccc(Cl)cc3c(=O)o2)cc1	21.5 µM (inactive)	14.5 µM (inactive)	31.2 µM (inactive)	18.8 µM (inactive)	26.2 µM (inactive)	14.7 µM (inactive)	15.4 µM (inactive)	15.8 µM (inactive)	11.9 µM (inactive)	11.4 µM (inactive)	12.6 µM (inactive)	5.12 µM (inactive)	17.7 µM (inactive)	17.9 µM (inactive)	36.6 µM (inactive)	20.6 µM (inactive)	11.9 µM (inactive)	25.4 µM (inactive)	12.8 µM (inactive)
